Results on seven compounds are retold here after ChEMBL document CHEMBL1697781, “Assessment of the health effects of chemicals in humans: II. Construction of an adverse effects database for QSAR modeling” (Curr Drug Discov Technol, 2004).

A value given as a limit tells only on which side of the number the result lay.
For GGT Increase - Index Value in this document: reference of the scale not given here.
For LDH Increase - Index Value in this document: reference of the scale not given here.

The subject of one series is Hepatotoxicity. Briefly: FDA HLAED, liver enzyme composite activity. Particulars: human.
As for `O=C(NCC1CCCCN1)c1cc(OCC(F)(F)F)ccc1OCC(F)(F)F` (stereo unspecified) [FLECAINIDE], the “Composite Activity - Active” value is recorded as 3, the “Composite Activity - Marginal” value came to 1 and the “Composite Activity - Score” value is “Active”.

On to `Cn1cc([S+](C)[O-])c(=O)c2ccc(F)cc21` (stereo unspecified) [FLOSEQUINAN], for which the “Composite Activity - Active” value is 1, the “Composite Activity - Marginal” value amounted to 0 and the “Composite Activity - Score” value is “Inactive”.

As to `Nc1nc(F)nc2c1ncn2[C@@H]1O[C@H](CO)[C@@H](O)[C@@H]1O` [FLUDARABINE], the “Composite Activity - Active” value is 4, the “Composite Activity - Marginal” value is reported as 0 and the “Composite Activity - Score” value is recorded as “Active”.

With `CCOC(=O)c1ncn2c1CN(C)C(=O)c1cc(F)ccc1-2` [FLUMAZENIL], the “Composite Activity - Active” value is reported as 0, the “Composite Activity - Marginal” value was 0 and the “Composite Activity - Score” value is “Inactive”.

As for `CC1(C)O[C@@H]2C[C@H]3[C@@H]4C[C@H](F)C5=CC(=O)C=C[C@]5(C)[C@H]4[C@@H](O)C[C@]3(C)[C@]2(C(=O)CO)O1` [FLUNISOLIDE], the “Composite Activity - Active” value is reported as 0, the “Composite Activity - Marginal” value is listed as 0 and the “Composite Activity - Score” value is “Inactive”.

Regarding `CNCCC(Oc1ccc(C(F)(F)F)cc1)c1ccccc1` (stereo unspecified) [FLUOXETINE], the “Composite Activity - Active” value was 3, the “Composite Activity - Marginal” value was found to be 2 and the “Composite Activity - Score” value was “Active”.

Still in this series, the particulars now being: human, Liver.
`OC(Cn1cncn1)(Cn1cncn1)c1ccc(F)cc1F` [FLUCONAZOLE]: the “Composite Activity - Active” value is 4, the “Composite Activity - Marginal” value is reported as 1 and the “Composite Activity - Score” value is listed as “Active”.

The next series deals with Hepatotoxicity. Briefly: FDA HLAED, alkaline phosphatase increase. Particulars: human.
Regarding `O=C(NCC1CCCCN1)c1cc(OCC(F)(F)F)ccc1OCC(F)(F)F` (stereo unspecified) [FLECAINIDE], the “Alkaline Phosphatase Increase - Activity Score” value was “Active”, the “Alkaline Phosphatase Increase - Index Value” is on record as 8.3 and the “Alkaline Phosphatase Increase - Number of Reports” value was “>= 4”.

Consider `Cn1cc([S+](C)[O-])c(=O)c2ccc(F)cc21` (stereo unspecified) [FLOSEQUINAN], for which the “Alkaline Phosphatase Increase - Activity Score” value is “Inactive”, the “Alkaline Phosphatase Increase - Index Value” was found to be 14.1 and the “Alkaline Phosphatase Increase - Number of Reports” value is reported as under 4.

For `OC(Cn1cncn1)(Cn1cncn1)c1ccc(F)cc1F` [FLUCONAZOLE], the “Alkaline Phosphatase Increase - Activity Score” value is reported as “Active”, the “Alkaline Phosphatase Increase - Index Value” amounted to 8.4 and the “Alkaline Phosphatase Increase - Number of Reports” value is recorded as “>= 4”.

`Nc1nc(F)nc2c1ncn2[C@@H]1O[C@H](CO)[C@@H](O)[C@@H]1O` [FLUDARABINE]: the “Alkaline Phosphatase Increase - Activity Score” value is “Active”, the “Alkaline Phosphatase Increase - Index Value” was 9.2 and the “Alkaline Phosphatase Increase - Number of Reports” value is “>= 4”.

Turning to `CCOC(=O)c1ncn2c1CN(C)C(=O)c1cc(F)ccc1-2` [FLUMAZENIL], the “Alkaline Phosphatase Increase - Activity Score” value was “Inactive”, the “Alkaline Phosphatase Increase - Index Value” worked out at 0 and the “Alkaline Phosphatase Increase - Number of Reports” value is reported as under 4.

As for `CC1(C)O[C@@H]2C[C@H]3[C@@H]4C[C@H](F)C5=CC(=O)C=C[C@]5(C)[C@H]4[C@@H](O)C[C@]3(C)[C@]2(C(=O)CO)O1` [FLUNISOLIDE], the “Alkaline Phosphatase Increase - Activity Score” value is given as “Inactive”, the “Alkaline Phosphatase Increase - Index Value” stood at 0 and the “Alkaline Phosphatase Increase - Number of Reports” value was under 4.

As for `CNCCC(Oc1ccc(C(F)(F)F)cc1)c1ccccc1` (stereo unspecified) [FLUOXETINE], the “Alkaline Phosphatase Increase - Activity Score” value was “Active”, the “Alkaline Phosphatase Increase - Index Value” is on record as 4.7 and the “Alkaline Phosphatase Increase - Number of Reports” value was “>= 4”.

The subject of the next series is Hepatotoxicity. Briefly: FDA HLAED, serum glutamic oxaloacetic transaminase (SGOT) increase. The conditions noted are these: human.
Take `O=C(NCC1CCCCN1)c1cc(OCC(F)(F)F)ccc1OCC(F)(F)F` (stereo unspecified) [FLECAINIDE]: the “SGOT Increase - Activity Score” value is listed as “Active”, the “SGOT Increase - Index Value” is recorded as 9.6 and the “SGOT Increase - Number of Reports” value is “>= 4”.

Consider `Cn1cc([S+](C)[O-])c(=O)c2ccc(F)cc21` (stereo unspecified) [FLOSEQUINAN], for which the “SGOT Increase - Activity Score” value is given as “Inactive”, the “SGOT Increase - Index Value” was 28.3 and the “SGOT Increase - Number of Reports” value is on record as under 4.

For `OC(Cn1cncn1)(Cn1cncn1)c1ccc(F)cc1F` [FLUCONAZOLE], the “SGOT Increase - Activity Score” value is “Active”, the “SGOT Increase - Index Value” is recorded as 9.8 and the “SGOT Increase - Number of Reports” value is “>= 4”.

With `Nc1nc(F)nc2c1ncn2[C@@H]1O[C@H](CO)[C@@H](O)[C@@H]1O` [FLUDARABINE], the “SGOT Increase - Activity Score” value is on record as “Active”, the “SGOT Increase - Index Value” is 9.2 and the “SGOT Increase - Number of Reports” value is recorded as “>= 4”.

Turning to `CCOC(=O)c1ncn2c1CN(C)C(=O)c1cc(F)ccc1-2` [FLUMAZENIL], the “SGOT Increase - Activity Score” value is listed as “Inactive”, the “SGOT Increase - Index Value” turned out to be 2.5 and the “SGOT Increase - Number of Reports” value is given as under 4.

Take `CC1(C)O[C@@H]2C[C@H]3[C@@H]4C[C@H](F)C5=CC(=O)C=C[C@]5(C)[C@H]4[C@@H](O)C[C@]3(C)[C@]2(C(=O)CO)O1` [FLUNISOLIDE]: the “SGOT Increase - Activity Score” value is given as “Inactive”, the “SGOT Increase - Index Value” worked out at 0 and the “SGOT Increase - Number of Reports” value is recorded as under 4.

Take `CNCCC(Oc1ccc(C(F)(F)F)cc1)c1ccccc1` (stereo unspecified) [FLUOXETINE]: the “SGOT Increase - Activity Score” value is “Active”, the “SGOT Increase - Index Value” was determined as 9.6 and the “SGOT Increase - Number of Reports” value is “>= 4”.

Another series concerns Hepatotoxicity. Briefly: FDA HLAED, serum glutamic pyruvic transaminase (SGPT) increase. The conditions noted are these: human.
Take `O=C(NCC1CCCCN1)c1cc(OCC(F)(F)F)ccc1OCC(F)(F)F` (stereo unspecified) [FLECAINIDE]: the “SGPT Increase - Activity Score” value is on record as “Active”, the “SGPT Increase - Index Value” was 8.3 and the “SGPT Increase - Number of Reports” value is given as “>= 4”.

Consider `Cn1cc([S+](C)[O-])c(=O)c2ccc(F)cc21` (stereo unspecified) [FLOSEQUINAN], for which the “SGPT Increase - Activity Score” value is recorded as “Inactive”, the “SGPT Increase - Index Value” is listed as 28.3 and the “SGPT Increase - Number of Reports” value was under 4.

Consider `OC(Cn1cncn1)(Cn1cncn1)c1ccc(F)cc1F` [FLUCONAZOLE], for which the “SGPT Increase - Activity Score” value is on record as “Active”, the “SGPT Increase - Index Value” came out at 9.1 and the “SGPT Increase - Number of Reports” value is “>= 4”.

As for `Nc1nc(F)nc2c1ncn2[C@@H]1O[C@H](CO)[C@@H](O)[C@@H]1O` [FLUDARABINE], the “SGPT Increase - Activity Score” value is “Active”, the “SGPT Increase - Index Value” was found to be 10.7 and the “SGPT Increase - Number of Reports” value is reported as “>= 4”.

In the case of `CCOC(=O)c1ncn2c1CN(C)C(=O)c1cc(F)ccc1-2` [FLUMAZENIL], the “SGPT Increase - Activity Score” value is “Inactive”, the “SGPT Increase - Index Value” was determined as 2.5 and the “SGPT Increase - Number of Reports” value was under 4.

For the compound `CC1(C)O[C@@H]2C[C@H]3[C@@H]4C[C@H](F)C5=CC(=O)C=C[C@]5(C)[C@H]4[C@@H](O)C[C@]3(C)[C@]2(C(=O)CO)O1` [FLUNISOLIDE], the “SGPT Increase - Activity Score” value is listed as “Inactive”, the “SGPT Increase - Index Value” is on record as 0 and the “SGPT Increase - Number of Reports” value is on record as under 4.

For `CNCCC(Oc1ccc(C(F)(F)F)cc1)c1ccccc1` (stereo unspecified) [FLUOXETINE], the “SGPT Increase - Activity Score” value is recorded as “Active”, the “SGPT Increase - Index Value” is recorded as 8.7 and the “SGPT Increase - Number of Reports” value is reported as “>= 4”.

Another series deals with Hepatotoxicity. Briefly: FDA HLAED, lactate dehydrogenase (LDH) increase. The conditions noted are these: human.
Regarding `O=C(NCC1CCCCN1)c1cc(OCC(F)(F)F)ccc1OCC(F)(F)F` (stereo unspecified) [FLECAINIDE], the “LDH Increase - Activity Score” value is given as “Marginally Active”, the “LDH Increase - Index Value” is given as 3.2 and the “LDH Increase - Number of Reports” value is given as “>= 4”.

For `Cn1cc([S+](C)[O-])c(=O)c2ccc(F)cc21` (stereo unspecified) [FLOSEQUINAN], the “LDH Increase - Activity Score” value is listed as “Active”, the “LDH Increase - Index Value” is listed as 56.6 and the “LDH Increase - Number of Reports” value was “>= 4”.

On to `OC(Cn1cncn1)(Cn1cncn1)c1ccc(F)cc1F` [FLUCONAZOLE], for which the “LDH Increase - Activity Score” value is “Marginally Active”, the “LDH Increase - Index Value” is 3 and the “LDH Increase - Number of Reports” value was “>= 4”.

Consider `Nc1nc(F)nc2c1ncn2[C@@H]1O[C@H](CO)[C@@H](O)[C@@H]1O` [FLUDARABINE], for which the “LDH Increase - Activity Score” value is “Active”, the “LDH Increase - Index Value” stood at 18.3 and the “LDH Increase - Number of Reports” value was “>= 4”.

Take `CCOC(=O)c1ncn2c1CN(C)C(=O)c1cc(F)ccc1-2` [FLUMAZENIL]: the “LDH Increase - Activity Score” value is given as “Inactive”, the “LDH Increase - Index Value” is 0 and the “LDH Increase - Number of Reports” value is given as under 4.

As for `CC1(C)O[C@@H]2C[C@H]3[C@@H]4C[C@H](F)C5=CC(=O)C=C[C@]5(C)[C@H]4[C@@H](O)C[C@]3(C)[C@]2(C(=O)CO)O1` [FLUNISOLIDE], the “LDH Increase - Activity Score” value is listed as “Inactive”, the “LDH Increase - Index Value” amounted to 0 and the “LDH Increase - Number of Reports” value is on record as under 4.

For `CNCCC(Oc1ccc(C(F)(F)F)cc1)c1ccccc1` (stereo unspecified) [FLUOXETINE], the “LDH Increase - Activity Score” value was “Marginally Active”, the “LDH Increase - Index Value” was determined as 3.2 and the “LDH Increase - Number of Reports” value is on record as “>= 4”.

Another series concerns Hepatotoxicity. Briefly: FDA HLAED, gamma-glutamyl transferase (GGT) increase. Particulars: human.
As to `O=C(NCC1CCCCN1)c1cc(OCC(F)(F)F)ccc1OCC(F)(F)F` (stereo unspecified) [FLECAINIDE], the “GGT Increase - Activity Score” value is “Inactive”, the “GGT Increase - Index Value” was 0 and the “GGT Increase - Number of Reports” value is reported as under 4.

Consider `Cn1cc([S+](C)[O-])c(=O)c2ccc(F)cc21` (stereo unspecified) [FLOSEQUINAN], for which the “GGT Increase - Activity Score” value is reported as “Inactive”, the “GGT Increase - Index Value” stood at 0 and the “GGT Increase - Number of Reports” value is reported as under 4.

For the compound `OC(Cn1cncn1)(Cn1cncn1)c1ccc(F)cc1F` [FLUCONAZOLE], the “GGT Increase - Activity Score” value was “Active”, the “GGT Increase - Index Value” was determined as 4.2 and the “GGT Increase - Number of Reports” value is given as “>= 4”.

With `Nc1nc(F)nc2c1ncn2[C@@H]1O[C@H](CO)[C@@H](O)[C@@H]1O` [FLUDARABINE], the “GGT Increase - Activity Score” value is “Inactive”, the “GGT Increase - Index Value” came to 0 and the “GGT Increase - Number of Reports” value is reported as under 4.

`CCOC(=O)c1ncn2c1CN(C)C(=O)c1cc(F)ccc1-2` [FLUMAZENIL]: the “GGT Increase - Activity Score” value is “Inactive”, the “GGT Increase - Index Value” was 0 and the “GGT Increase - Number of Reports” value is given as under 4.

Take `CC1(C)O[C@@H]2C[C@H]3[C@@H]4C[C@H](F)C5=CC(=O)C=C[C@]5(C)[C@H]4[C@@H](O)C[C@]3(C)[C@]2(C(=O)CO)O1` [FLUNISOLIDE]: the “GGT Increase - Activity Score” value is “Inactive”, the “GGT Increase - Index Value” is listed as 0 and the “GGT Increase - Number of Reports” value is on record as under 4.

With `CNCCC(Oc1ccc(C(F)(F)F)cc1)c1ccccc1` (stereo unspecified) [FLUOXETINE], the “GGT Increase - Activity Score” value is “Marginally Active”, the “GGT Increase - Index Value” was determined as 3.3 and the “GGT Increase - Number of Reports” value is “>= 4”.
